Experimental data from patent publication EP0174162A2, “Pharmaceutically active dipeptide derivatives” (THE WELLCOME FOUNDATION LIMITED, priority 1984, dated 1986).

How the values were obtained:
[1] = tested on: uninephrectomised, contralateral renal stenotic conscious beagle dogs; experiment: Antihypertensive activity in uninephrectomised, contralateral renal stenotic conscious beagle dogs; assay type: in vivo; conditions: doses in the range 1-3 mgkg^-1 intravenously
[2] = tested on: isoprenaline induced tachycardia; experiment: Effect on heart rate: isoprenaline induced tachycardia in pithed rats; assay type: in vivo; conditions: doses 10-100 µgkg^-1min^-1 displaced isoprenaline dose response curves rightwards
Procedure: Doses 10-100 µgkg^-1min^-1 effectively displaced in a rightwards fashion, isoprenaline dose response curves.

ACE = molecular target: T1, ACE (Rattus norvegicus, UniProt P47820); experiment: ACE inhibition in vivo: angiotensin I induced pressor responses in pithed rats; conditions: doses 1-100 µgkg^-1min displaced angiotensin I dose response curves rightwards
T1 construct: in pithed rats; from tissue; host or cells: whole animal (pithed rat)
T1 sequence (P47820 36-1313): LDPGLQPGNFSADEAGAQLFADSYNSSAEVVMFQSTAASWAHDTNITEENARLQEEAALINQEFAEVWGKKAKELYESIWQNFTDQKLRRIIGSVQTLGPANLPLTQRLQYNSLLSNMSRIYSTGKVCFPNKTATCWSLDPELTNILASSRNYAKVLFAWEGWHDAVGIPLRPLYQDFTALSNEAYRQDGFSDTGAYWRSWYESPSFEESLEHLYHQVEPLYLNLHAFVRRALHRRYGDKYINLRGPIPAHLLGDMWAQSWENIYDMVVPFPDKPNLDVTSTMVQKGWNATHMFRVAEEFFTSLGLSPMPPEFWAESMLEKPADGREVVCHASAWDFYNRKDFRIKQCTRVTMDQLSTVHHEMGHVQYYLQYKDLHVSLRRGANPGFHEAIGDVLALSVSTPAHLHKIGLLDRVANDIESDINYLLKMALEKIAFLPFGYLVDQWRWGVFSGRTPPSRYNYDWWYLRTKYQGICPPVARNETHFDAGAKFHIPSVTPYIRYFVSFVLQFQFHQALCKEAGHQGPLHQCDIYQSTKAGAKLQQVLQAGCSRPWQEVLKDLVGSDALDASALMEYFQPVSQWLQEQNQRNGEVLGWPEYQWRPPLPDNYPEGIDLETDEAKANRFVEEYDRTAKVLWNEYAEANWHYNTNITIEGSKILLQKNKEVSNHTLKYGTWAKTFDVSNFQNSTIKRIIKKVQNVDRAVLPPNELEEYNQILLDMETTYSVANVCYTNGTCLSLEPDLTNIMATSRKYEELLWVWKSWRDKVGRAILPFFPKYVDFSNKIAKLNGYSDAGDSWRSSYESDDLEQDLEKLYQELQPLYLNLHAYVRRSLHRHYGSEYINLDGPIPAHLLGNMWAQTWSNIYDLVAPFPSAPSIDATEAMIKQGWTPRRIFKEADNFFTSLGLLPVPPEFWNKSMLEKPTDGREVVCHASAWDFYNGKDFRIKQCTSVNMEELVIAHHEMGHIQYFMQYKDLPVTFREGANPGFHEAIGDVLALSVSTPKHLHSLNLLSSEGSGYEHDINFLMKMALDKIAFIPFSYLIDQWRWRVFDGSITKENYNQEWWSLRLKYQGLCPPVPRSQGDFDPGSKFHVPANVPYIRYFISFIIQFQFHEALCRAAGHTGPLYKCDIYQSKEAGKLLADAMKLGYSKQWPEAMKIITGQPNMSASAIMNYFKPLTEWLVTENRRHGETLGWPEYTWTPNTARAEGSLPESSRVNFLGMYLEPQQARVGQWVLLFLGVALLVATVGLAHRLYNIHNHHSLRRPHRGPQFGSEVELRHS
Procedure: Doses 1-100 µgkg^-1min effectively displaced in a rightwards fashion, angiotensin I dose response curves.

[3] = tested on: salt depleted conscious beagle dogs; experiment: Antihypertensive activity in salt depleted conscious beagle dogs; assay type: in vivo; conditions: intravenous administration, doses in the range 1-3 mgkg^-1
isolated enzyme = isolated enzyme (Homo sapiens, UniProt P12821); experiment: ACE inhibition on isolated enzyme; assay type: biochemical; conditions: read-out: apparent IC50 on isolated enzyme
isolated enzyme, sequence (P12821 30-1306): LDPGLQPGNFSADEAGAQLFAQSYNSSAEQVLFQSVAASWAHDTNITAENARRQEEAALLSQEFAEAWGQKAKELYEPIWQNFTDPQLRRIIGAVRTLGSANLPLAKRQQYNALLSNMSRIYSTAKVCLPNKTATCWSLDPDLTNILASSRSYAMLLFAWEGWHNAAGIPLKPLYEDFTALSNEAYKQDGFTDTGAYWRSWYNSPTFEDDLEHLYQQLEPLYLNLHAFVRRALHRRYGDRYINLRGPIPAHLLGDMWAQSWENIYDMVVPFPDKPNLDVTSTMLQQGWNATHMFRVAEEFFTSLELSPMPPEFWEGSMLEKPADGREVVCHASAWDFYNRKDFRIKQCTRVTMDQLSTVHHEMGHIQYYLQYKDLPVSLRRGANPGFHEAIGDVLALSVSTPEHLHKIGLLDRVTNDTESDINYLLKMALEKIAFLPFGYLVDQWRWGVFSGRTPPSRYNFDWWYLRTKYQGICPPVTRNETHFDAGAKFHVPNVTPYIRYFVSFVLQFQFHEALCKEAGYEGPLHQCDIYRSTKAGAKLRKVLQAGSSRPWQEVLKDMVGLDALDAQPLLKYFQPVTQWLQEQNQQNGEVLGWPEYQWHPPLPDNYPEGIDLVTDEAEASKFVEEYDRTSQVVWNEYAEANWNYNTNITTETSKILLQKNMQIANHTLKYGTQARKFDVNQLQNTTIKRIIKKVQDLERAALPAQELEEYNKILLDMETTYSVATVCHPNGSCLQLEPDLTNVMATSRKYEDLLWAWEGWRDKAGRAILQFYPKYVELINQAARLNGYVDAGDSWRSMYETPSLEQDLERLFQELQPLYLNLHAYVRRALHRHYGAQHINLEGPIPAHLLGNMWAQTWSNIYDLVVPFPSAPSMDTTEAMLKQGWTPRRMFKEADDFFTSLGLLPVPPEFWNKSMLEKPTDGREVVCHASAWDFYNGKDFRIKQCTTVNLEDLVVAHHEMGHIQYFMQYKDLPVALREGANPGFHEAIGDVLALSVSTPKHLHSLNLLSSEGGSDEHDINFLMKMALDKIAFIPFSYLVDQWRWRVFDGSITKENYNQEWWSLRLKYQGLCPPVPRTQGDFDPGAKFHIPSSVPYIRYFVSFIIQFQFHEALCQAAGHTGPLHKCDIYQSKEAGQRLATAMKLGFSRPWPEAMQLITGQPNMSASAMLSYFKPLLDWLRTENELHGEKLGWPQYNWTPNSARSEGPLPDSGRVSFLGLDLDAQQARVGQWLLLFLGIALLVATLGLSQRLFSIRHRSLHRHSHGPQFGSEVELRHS

## CC(C)NCC(O)COc1cccc2[nH]c(C(=O)NCCCC[C@H](NC(C)C(=O)N3CCC[C@H]3C(=O)O)C(=O)O)cc12 (some centres unmarked) [Example 1]
[1]
  hypotensive activity: marked hypotensive activity
[2]
  inhibition of isoprenaline induced tachycardia: inhibit in a dose dependent fashion
ACE
  inhibition of angiotensin I induced pressor responses: inhibit in a dose dependent fashion
[3]
  blood pressure: reduce blood pressure
Isolated enzyme
  IC50: 11 nM
